Values of other authors in patent US11179353B1, “Composition and method for prevention and treatment of radiation dermatitis” (Rythera Therapeutics, Inc., priority 2020, dated 2021).

How the values were obtained:
irradiated breast tissue = settings: topical
radiation skin damage = settings: retrospective analysis

Row | Compound | improvement in the results of irradiated breast tissue (irradiated breast tissue) | dermato-cytoprotective effects (radiation skin damage)
1 | O=C1O[C@H]([C@@H](O)CO)C(O)=C1O [Vitamin C] | without improvement | 
2 | NCCCNCCSP(=O)(O)O [amifostine] |  | significant dermato-cytoprotective effects
